# Measurements published in patent US20120040950A1, “ISOINDOLINONE INHIBITORS OF PHOSPHATIDYLINOSITOL 3-KINASE” (VERTEX PHARMACEUTICALS INCORPORATED, priority 2009, published 2012).
# Assays:
# [1] = system: activated microglia; experiment: Microglia Activation Assay (LPS-injected mice, Iba1 IHC of brain); format: in vivo, Female C57B1/6J mice; conditions: 10 mg/kg b.i.d. orally by gavage, 4 doses, LPS 0.5 mg/kg i.p. for three days
# Protocol: Female C57B1/6J mice (7 weeks old) were purchased from Jackson Laboratory (Maine, US). Animals were acclimated for a week at standard laboratory conditions (12 hrs light cycles) with free access to rodent chow and water. All procedures were in accordance with the National Institute of Health Guidelines for the care and Use of Laboratory Animals and were approved by IACUCC. The endotoxin Lipopolysaccharide (LPS) (E. coli 011:B4, cat#437627) was purchased from Calbiochem. LPS was dissolved in PBS buffer at a concentration of 0.05 mg/ml and stored in frozen aliquots. At the start of the study, mice received an intraperitoneal (i.p.) injection of LPS (0.5 mg/kg) for three consecutive days. Therapeutic treatment with VRT compounds was started together with the 2nd LPS administration and maintained throughout the study. Compound was dosed twice a day orally by gavage for a total of 4 doses. 24 h following the last LPS injection, and 2 hrs following the last VRT dose, animals were sacrificed by CO2 asphyxiation. […]
# Digital images were captured using the Aperio ScanScope Slide Scanner (Aperio Technologies, Vista, Calif.). Images were captured at 20× optical magnification, and analyzed using the software Definiens Developer XD. […] Compound efficacy was calculated as percent decrease in number of activated microglia relative to vehicle control.
# [2] = biological target: PI3K-gamma (Homo sapiens, UniProt P48736); experiment: PI3K Inhibition Assay; format: biochemical
# Protocol: Using a Biomek FX from Beckman Coulter, 1.5 μL of each of ten 2.5-fold serial dilutions of a compound of the invention in 100% DMSO was added to an individual well (hereafter, “test well”) in a 96 well polystyrene plate [Corning, Costar Item No. 3697]. One test well also contained 1.5 μL of DMSO with no compound. […] Using a Titertek Multidrop, 50 μL of Reaction Mix [100 mM HEPES pH 7.5, 50 mM NaCl, 10 mM DTT, 0.2 mg/mL BSA, 60 μM phosphatidylinositol(4,5)bisphosphate diC16 (PI(4,5)P2; Avanti Polar Lipids, Cat. No. 840046P) and PI3K isoform of interest (see Table 3 for isoform concentrations)] was added to each well. To initiate the reaction, 50 μL of ATP Mix [20 mM MgCl2, 6 μM ATP (100 μCi/μmole ^33P-ATP)] was added each well, followed by incubating the wells for 30 min. at 25° C. Final concentrations in each well were 50 mM HEPES 7.5, 10 mM MgCl2, 25 mM NaCl, 5 mM DTT, 0.1 mg/mL BSA, 30 μM PI(4,5)P2, 3 μM ATP, and the PI3K isoform of interest (see Table 2). Final compound concentrations in each well ranged from 10 μM to 1 nM.
# After incubation, the reactions in each well were quenched by addition of 50 μL of stop solution [30% TCA/Water, 10 mM ATP]. […] 50 μL of scintillation fluid was added to each well and the plate read on a Perkin-Elmer TopCount™ NXT liquid scintillation counter to obtain ^33P-counts representing inhibition values. […]
# Sequence of PI3K-gamma (P48736 whole entry, species assumed, canonical isoform): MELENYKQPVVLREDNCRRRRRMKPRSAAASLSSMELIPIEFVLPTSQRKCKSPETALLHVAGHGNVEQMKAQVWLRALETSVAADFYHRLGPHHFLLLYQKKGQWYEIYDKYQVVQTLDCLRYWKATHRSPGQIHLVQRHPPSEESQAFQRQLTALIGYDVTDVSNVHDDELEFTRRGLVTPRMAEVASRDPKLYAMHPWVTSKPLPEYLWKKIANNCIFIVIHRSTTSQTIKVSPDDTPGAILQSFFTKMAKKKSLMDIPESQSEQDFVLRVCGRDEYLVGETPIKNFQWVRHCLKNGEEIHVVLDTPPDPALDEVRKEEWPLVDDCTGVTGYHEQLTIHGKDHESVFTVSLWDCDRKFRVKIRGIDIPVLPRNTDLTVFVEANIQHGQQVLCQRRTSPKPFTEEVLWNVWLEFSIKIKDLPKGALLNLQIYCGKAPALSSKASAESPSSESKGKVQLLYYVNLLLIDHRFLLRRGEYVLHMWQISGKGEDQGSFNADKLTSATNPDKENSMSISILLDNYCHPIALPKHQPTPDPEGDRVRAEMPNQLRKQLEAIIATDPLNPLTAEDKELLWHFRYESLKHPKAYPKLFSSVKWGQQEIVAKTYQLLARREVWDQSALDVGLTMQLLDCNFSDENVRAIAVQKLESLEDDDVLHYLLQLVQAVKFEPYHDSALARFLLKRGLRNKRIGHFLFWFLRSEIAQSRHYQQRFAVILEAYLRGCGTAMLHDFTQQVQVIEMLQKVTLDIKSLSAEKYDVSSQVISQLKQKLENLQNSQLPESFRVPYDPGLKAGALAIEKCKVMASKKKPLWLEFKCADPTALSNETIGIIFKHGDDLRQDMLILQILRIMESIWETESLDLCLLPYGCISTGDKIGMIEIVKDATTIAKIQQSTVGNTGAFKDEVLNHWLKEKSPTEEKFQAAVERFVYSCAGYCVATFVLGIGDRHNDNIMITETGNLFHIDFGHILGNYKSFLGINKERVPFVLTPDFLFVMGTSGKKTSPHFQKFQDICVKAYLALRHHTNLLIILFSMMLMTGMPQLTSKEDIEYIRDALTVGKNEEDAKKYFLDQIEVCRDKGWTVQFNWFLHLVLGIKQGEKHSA
Compound,percent decrease in number of activated microglia relative to vehicle control [1] [%],Ki [2] [µM]
Cc1cc(-c2cncc(OC(F)F)c2)nc2c1C(=O)N(c1cnn(CC(F)(F)F)c1)C2 [Compound 271],39,–
"COc1cc(-c2nc3c(cc2C)C(=O)N(c2cn[nH]c2)C3)cnc1OC [Compound 238, 2-(5,6-dimethoxypyridin-3-yl)-3-methyl-6-(1H-pyrazol-4-yl)-6,7-dihydro-5H-pyrrolo[3,4-b]pyridin-5-one]",–,0.5 to 2.5
